Data: patent US10800741B2 (ANCUREALL PHARMACEUTICAL (SHANGHAI) CO., LTD., priority 2017, dated 2020)
Read-outs that look alike come from different tables or passages of the source.

Experiments:
Assay type in all cases: cell-based, Human
[1] = system: Karpas 299 (NPM-ALK); assay: In vitro growth inhibition of Karpas 299 tumor cells (MTT/CCK8); settings: Homo sapiens
[2] = system: Kasumi-1 (KIT N822K); assay: In vitro growth inhibition of Kasumi-1 tumor cells (MTT/CCK8); settings: Homo sapiens
[3] = system: H1581 (FGFR1 amp); assay: In vitro growth inhibition of H1581 tumor cells (MTT/CCK8); settings: Homo sapiens
[4] = system: Hep3B2 (FGFR3/4+++); assay: In vitro growth inhibition of Hep3B2 tumor cells (MTT/CCK8); settings: Homo sapiens, Hep3B, read-out: IC50 Hep3B2 (FGFR3/4+++)
[5] = system: H1703 (PDGFRa amp); assay: In vitro growth inhibition of H1703 tumor cells (MTT/CCK8); settings: Homo sapiens
[6] = system: KATO III (FGFR2 amp); assay: In vitro growth inhibition of KATO III tumor cells (MTT/CCK8); settings: Homo sapiens, KATO III, read-out: IC50 KATO III (FGFR2 amp)
[7] = system: MOLM-13 (FLT3-ITD); assay: In vitro growth inhibition of MOLM-13 tumor cells (MTT/CCK8); settings: Homo sapiens
[8] = system: KCL-22 (BCR-ABL); assay: In vitro growth inhibition of KCL-22 tumor cells (MTT/CCK8); settings: Homo sapiens
[9] = KARPAS-299, in vitro growth inhibition (or induction of apoptosis), cells cultured 3 to 5 days, MTT (CCK8), read-out: IC50 Karpas 299 (NPM-ALK)
[10] = Kasumi 1, in vitro growth inhibition (or induction of apoptosis), cells cultured 3 to 5 days, MTT (CCK8), read-out: IC50 Kasumi-1 (KIT N822K)
[11] = NCI-H1581, in vitro growth inhibition (or induction of apoptosis), cells cultured 3 to 5 days, MTT (CCK8), read-out: IC50 H1581 (FGFR1 amp)
[12] = in vitro growth inhibition (or induction of apoptosis), cells cultured 3 to 5 days, MTT (CCK8)
[13] = NCI-H1703, in vitro growth inhibition (or induction of apoptosis), cells cultured 3 to 5 days, MTT (CCK8), read-out: IC50 H1703 (PDGFRa amp)
[14] = MOLM-13, in vitro growth inhibition (or induction of apoptosis), cells cultured 3 to 5 days, MTT (CCK8), read-out: IC50 MOLM-13 (FLT3-ITD)
[15] = KCL-22, in vitro growth inhibition (or induction of apoptosis), cells cultured 3 to 5 days, MTT (CCK8), read-out: IC50 KCL-22 (BCR-ABL)

Row | Compound | IC50 [1, 9] | IC50 [2, 10] | IC50 [3, 11] | IC50 [4, 12] | IC50 [5, 13] | IC50 [6, 12] | IC50 [7, 14] | IC50 [8, 15] | IC50 ([1]; KARPAS-299, read-out: IC50 Karpas 299 (NPM-ALK)) | IC50 ([2]; Kasumi 1, read-out: IC50 Kasumi-1 (KIT N822K)) | IC50 ([3]; NCI-H1581, read-out: IC50 H1581 (FGFR1 amp)) | IC50 [4] | IC50 ([5]; NCI-H1703, read-out: IC50 H1703 (PDGFRa amp)) | IC50 [6] | IC50 ([7]; MOLM-13, read-out: IC50 MOLM-13 (FLT3-ITD)) | IC50 ([8]; KCL-22, read-out: IC50 KCL-22 (BCR-ABL))
1 | CCC(=O)Nc1cc2c(Oc3ccc(NC(=O)Nc4cc(C(C)(C)C)n[nH]4)c(Cl)c3)ccnc2cc1OC [Compound 64, N-(4-{4-[3-(5-tert-butyl-2H-pyrazol-3-yl)-ureido]-3-chloro-phenoxy}-7-methoxyquinolin-6-yl)-propionamide] | 186 nM | 34.2 nM | 8.64 nM | 19 nM | 13.1 nM | 0.63 nM | 8.78 nM | 17.4 nM |  |  |  |  |  |  |  | 
2 | COc1cc2nccc(Oc3ccc(NC(=O)Nc4cc(C(C)(C)C)n[nH]4)c(Cl)c3)c2cc1NC(=O)C1CCCC1 [Compound 65, cyclopentane carboxylic acid (4-{4-[3-(5-tert-butyl-2H-pyrazol-3-yl)-ureido]-3-chloro-phenoxy}-7-methoxy-quinolin-6-yl)-amide] | > 1000 nM | 568 nM | 218 nM | 160 nM | 247 nM | 11 nM | 72 nM | 163 nM |  |  |  |  |  |  |  | 
3 | COc1cc2nccc(Oc3ccc(NC(=O)Nc4cc(C(C)(C)C)n[nH]4)c(Cl)c3)c2cc1C#N [Compound 67, 1-(5-tert-butyl-2H-pyrazol-3-yl)-3-[2-chloro-4-(6-cyano-7-methoxy-quinolin-4-yloxy)-phenyl]-urea] | 863 nM | 24.8 nM | 164 nM | 270 nM | 436 nM | 6.83 nM | 72.2 nM | 19.2 nM |  |  |  |  |  |  |  | 
4 | CCOc1cc2ncc(C#N)c(Oc3ccc(NC(=O)Nc4cc(C(C)(C)C)n[nH]4)c(Cl)c3)c2cc1NC(C)=O [Compound 68, N-(4-{4-[3-(5-tert-butyl-2H-pyrazol-3-yl)-ureido]-3-chloro-phenoxy}-3-cyano-7-ethoxy-quinolin-6-yl) acetamide] | > 1000 nM | > 1000 nM | > 1000 nM | > 1000 nM | > 1000 nM | > 1000 nM | > 1000 nM | > 1000 nM |  |  |  |  |  |  |  | 
5 | CCC(=O)N1CCC(NC(=O)Nc2ccc(Oc3ccnc4cc(OC)c(C(N)=O)cc34)cc2Cl)C1 (stereo not shown) [Compound 69, 4-{3-chloro-4-[3-(1-propionyl-pyrrolidin-3-yl)-ureido]-phenoxy}-7-methoxyquinolin-6-carboxamide] | > 1000 nM | > 1000 nM | > 1000 nM | > 1000 nM | > 1000 nM | > 1000 nM | > 1000 nM | > 1000 nM |  |  |  |  |  |  |  | 
6 | C=CC(=O)N1CCC(NC(=O)Nc2ccc(Oc3ccnc4cc(OC)c(C(N)=O)cc34)cc2Cl)C1 (stereo not shown) [Compound 70, 4-{3-chloro-4-[3-(1-acryloylpyrrolidin-3-yl)-ureido]-phenoxy}-7-methoxyquinolin-6-carboxamide] | > 1000 nM | > 1000 nM | > 1000 nM | > 1000 nM | > 1000 nM | > 1000 nM | > 1000 nM | > 1000 nM |  |  |  |  |  |  |  | 
7 | CCN1CCN(c2ccc(Nc3cc(NC(=O)Nc4ccc(Oc5ccnc6cc(OC)c(C(N)=O)cc56)c(Cl)c4Cl)ncn3)cc2)CC1 [Compound 71] | > 1000 nM | > 1000 nM | > 1000 nM | > 1000 nM | > 1000 nM | > 1000 nM | > 1000 nM | ≥ 1000 nM |  |  |  |  |  |  |  | 
8 | CNC(=O)c1cc2c(Oc3ccc(NC(=O)n4nc(C(C)(C)C)cc4N)c(Cl)c3)ccnc2cc1OC [Compound 72] |  |  |  |  |  |  |  |  | 736 nM | 137 nM | 165 nM | 159 nM | 250 nM | 6.18 nM | 50.8 nM | 117 nM
9 | COc1cc(Oc2ccnc3cc(OC)c(C(N)=O)cc23)ccc1NC(=O)n1nc(C(C)(C)C)cc1N [Compound 73, 4-{4-[(5-amino-3-tert-butyl-pyrazol-1-carbonyl)-amino]-3-methoxy-phenoxy}-7-methoxyquinolin-6-carboxamide] | 88.5 nM | 129 nM | 138 nM | 288 nM | 222 nM | 265 nM | 197 nM | 80.6 nM |  |  |  |  |  |  |  | 
10 | COc1cc2nccc(Oc3ccc(NC(=O)N4CCc5ccsc5C4)c(Cl)c3)c2cc1C(N)=O [Compound 74, 4-{3-chloro-4-[(4,7-dihydro-5H-thieno[2,3-c]pyridin-6-carbonyl)-amino]-phenoxy}-7-methoxyquinolin-6-carboxamide] | > 1000 nM | > 1000 nM | > 1000 nM | > 1000 nM | > 1000 nM | > 1000 nM | > 1000 nM | > 1000 nM |  |  |  |  |  |  |  | 
11 | CNC(=O)c1cc2c(Oc3ccc(NC(=O)N4CCN(C)CC4)c(Cl)c3Cl)ccnc2cc1OCCOC [Compound 75, 4-{2,3-dichloro-4-[(4-methyl-piperazin-1-carbonyl)-amino]-phenoxy}-7-(2-methoxy-ethoxy)-quinolin-6-carboxylic acid methylamide] | > 1000 nM | > 1000 nM | > 1000 nM | > 1000 nM | > 1000 nM | > 1000 nM | > 1000 nM | > 1000 nM |  |  |  |  |  |  |  | 
12 | CNC(=O)c1cc2c(Oc3ccc(NC(=O)N4CCCC4)c(Cl)c3Cl)ccnc2cc1OCCOC [Compound 76, 4-{2,3-dichloro-4-[(pyrrolidin-1-carbonyl)-amino]-phenoxy}-7-(2-methoxy-ethoxy)-quinolin-6-carboxylic acid methylamide] | > 1000 nM | ≥ 1000 nM | > 1000 nM | > 1000 nM | 370 nM | 363 nM | > 1000 nM | > 1000 nM |  |  |  |  |  |  |  | 
13 | COc1cc2nccc(Nc3ccc(NC(=O)Nc4cc(C(C)(C)C)on4)c(Cl)c3)c2cc1C(N)=O [Compound 77, 4-{4-[3-(5-tert-butyl-isoxazol-3-yl)-ureido]-3-chlorophenylamino}-7-methoxyquinolin-6-carboxamide] | > 1000 nM | 518 nM | 243 nM | 494 nM | 212 nM | 17 nM | 42.5 nM | 294 nM |  |  |  |  |  |  |  | 
14 | COc1cc2nccc(Nc3ccc(NC(=O)Nc4cc(C(C)(C)C)on4)cc3)c2cc1C(N)=O [Compound 78, 4-{4-[3-(5-tert-butyl-isoxazol-3-yl)-ureido]-phenylamino}-7-methoxyquinolin-6-carboxamide] | > 1000 nM | > 1000 nM | 684 nM | 502 nM | 447 nM | 36.6 nM | 1.37 nM | > 1000 nM |  |  |  |  |  |  |  | 
